From patent US7547783B2, “Transition metal complexes” (Shell Oil Company, priority 2004, dated 2009) come the findings set out here.

One data set can be described thus: practical solubility of the transition metal complexes at ambient temperature.
Conditions: not given
How it is done:
The practical solubility of the transition metal complexes was determined at ambient temperature in the inert atmosphere of the dry box.
1 mg of solid complex was contacted with 0.5 ml of benzene-D6 in an NMR-tube (5 mm external diameter) and gently swirled.
Regarding `CCCCCCCCCCCCCCCCCCCCOc1c(-c2ccccc2)cc(N=C(C)c2cccc(C(C)=Nc3cc(-c4ccccc4)c(OCCCCCCCCCCCCCCCCCCCC)c(-c4ccccc4)c3)n2)cc1-c1ccccc1.[Cl-].[Cl-].[Cl-].[Cr+3]` [Example 9, 2,6-bis[1-(4-eicosanoxy-3,5-diphenylphenylimino)ethyl]pyridine chromium[III] trichloride complex], the “solubility in toluene or benzene-D6” value is “ca. 50 mg/ml”.

With `CCCCCCCCCCCCCCCCCCCCOc1cc(C)c([N+]2=C(C)c3cccc4[n+]3[Fe]2([Cl])([Cl])[N+](c2cc(C(C)C)c(OCCCCCCCCCCCCCCCCCCCC)cc2C)=C4C)cc1C(C)C` [Example 12, 2,6-bis[1-(2-methyl-4-eicosanoxy-5-isopropylphenylimino)ethyl]pyridine iron (II) dichloride], the “solubility in C6D6 (in words)” value is on record as “soluble”.

The same data set, now with this note: 20 °C, organic solvent or mixture, thermodynamic from solid.
For `CC1=[N+](c2cc(C(C)(C)C)cc(C(C)(C)C)c2)[Fe]2([Cl])([Cl])[N+](c3c(C)cc(C)cc3C)=C(C)c3cccc1[n+]32` [Example 2, 2-[1-(2,4,6-trimethylphenylimino)ethyl]-6-[1-(3,5-di-tert-butylphenylimino)ethyl]pyridine iron[II] chloride complex, reference compound], the solubility at 24 h is < 1 mg/mL.

On to `CCCCCCCCCCCCCCCCCCCCOc1c(-c2ccccc2)cc([N+]2=C(C)c3cccc4[n+]3[Fe]2([Cl])([Cl])[N+](c2c(C)cc(C)cc2C)=C4C)cc1-c1ccccc1` [Example 3, 2-[1-(2,4,6-trimethylphenylimino)ethyl]-6-[1-(4-eicosanoxy-3,5-diphenylphenylimino)ethyl]pyridine iron[II] dichloride complex], for which the solubility at 24 h is ~50 mg/mL.

Consider `CCCCCCCCCCCCCCCCCCCCOc1c(-c2ccccc2)cc([N+]2=C(C)c3cccc4[n+]3[Co]2([Cl])([Cl])[N+](c2c(C)cc(C)cc2C)=C4C)cc1-c1ccccc1` [Example 4, 2-[1-(2,4,6-trimethylphenylimino)ethyl]-6-[1-(4-eicosanoxy-3,5-diphenylphenylimino)ethyl]pyridine cobalt[II] dichloride complex], for which the solubility at 24 h turned out to be 50 mg/mL.

Regarding `CCCCCCCCCCCCCCCCCCCCOc1c(-c2ccccc2)cc([N+]2=C(C)c3cccc4[n+]3[Fe]2([Cl])([Cl])[N+](c2cc(-c3ccccc3)c(OCCCCCCCCCCCCCCCCCCCC)c(-c3ccccc3)c2)=C4C)cc1-c1ccccc1` [Example 7, 2,6-bis[1-(4-eicosanoxy-3,5-diphenylphenylimino)ethyl]pyridine iron [II] dichloride complex], the solubility at 24 h was ~100 mg/mL.

Consider `CCCCCCCCCCCCCCCCCCCCOc1c(-c2ccccc2)cc([N+]2=C(C)c3cccc4[n+]3[Co]2([Cl])([Cl])[N+](c2cc(-c3ccccc3)c(OCCCCCCCCCCCCCCCCCCCC)c(-c3ccccc3)c2)=C4C)cc1-c1ccccc1` [Example 8, 2,6-bis[1-(4-eicosanoxy-3,5-diphenylphenylimino)ethyl]pyridine cobalt[II] dichloride complex], for which the solubility at 24 h is ~100 mg/mL.

In the case of `CCCCCCCCCCCCCCCCCCCCOc1c(-c2ccccc2)cc([N+]2=C(C)c3cccc4[n+]3[Co]2([Cl])([Cl])[N+](c2ccccc2C(C)(C)C)=C4C)cc1-c1ccccc1` [Example 10, 2-[1-(2-tert-butylphenylimino)ethyl]-6-[1-(4-eicosanoxy-3,5-diphenylphenylimino)ethyl]pyridine cobalt[II] chloride complex], the solubility at 24 h is ~50 mg/mL.

With `CCCCCCCCCCCCCCCCCCCCOc1ccc([N+]2=C(C)c3cccc4[n+]3[Fe]2([Cl])([Cl])[N+](c2ccc(OCCCCCCCCCCCCCCCCCCCC)cc2C)=C4C)c(C)c1` [Example 11, 2,6-bis[1-(4-eicosanoxy-2-methylphenylimino)ethyl]pyridine iron[II] chloride complex, reference compound], the solubility at 24 h was < 1 mg/mL.

Turning to `CCCCCCCCCCCCCCCCCCCCOc1cc(C)c([N+]2=C(C)c3cccc4[n+]3[Fe]2([Cl])([Cl])[N+](c2cc(C(C)C)c(OCCCCCCCCCCCCCCCCCCCC)cc2C)=C4C)cc1C(C)C` [Example 12, 2,6-bis[1-(2-methyl-4-eicosanoxy-5-isopropylphenylimino)ethyl]pyridine iron (II) dichloride], the solubility at 24 h was ~10 mg/mL.

As for `CCCOc1c(-c2ccccc2)cc([N+]2=C(C)c3cccc4[n+]3[Co]2([Cl])([Cl])[N+](c2c(C)cc(C)cc2C)=C4C)cc1-c1ccccc1` [Example 13, 2-[1-(2,4,6-trimethylphenylimino)ethyl]-6-[1-(4-propoxy-3,5-diphenylphenylimino)ethyl]pyridine cobalt[II] chloride complex, reference compound], the solubility at 24 h is < 1 mg/mL.

Regarding `CC1=[N+](c2cc(-c3ccccc3)c(O)c(-c3ccccc3)c2)[Fe]2([Cl])([Cl])[N+](c3c(C)cc(C)cc3C)=C(C)c3cccc1[n+]32` [Example 14, 2-[1-(2,4,6-trimethylphenylimino)ethyl]-6-[1-(4-hydroxy-3,5-diphenylphenylimino)ethyl]pyridine iron (II) dichloride, reference compound], the solubility at 24 h was < 1 mg/mL.

Still in this data set, the particulars now being: at 20° C.
`CCCCCCCCCCCCCCCCCCCCOc1c(-c2ccccc2)cc(N=C(C)c2cccc(C(C)=Nc3c(C)cc(C)cc3C)n2)cc1-c1ccccc1.FC(F)(F)c1cc([B-](c2cc(C(F)(F)F)cc(C(F)(F)F)c2)(c2cc(C(F)(F)F)cc(C(F)(F)F)c2)c2cc(C(F)(F)F)cc(C(F)(F)F)c2)cc(C(F)(F)F)c1.[Cl][Co+]` [Example 5, 2-[1-(2,4,6-trimethylphenylimino)ethyl]-6-[1-(4-eicosanoxy-3,5-diphenylphenylimino)ethyl]pyridine cobalt[II] chloride tetrakis[3,5-bis[trifluoromethyl)phenyl]borate]: the “solubility in toluene or benzene-D6” value is “ca. 10 mg/ml”.

As to `CCCCCCCCCCCCCCCCCCCCOc1c(-c2ccccc2)cc(N=C(C)c2cccc(C(C)=Nc3c(C)cc(C)cc3C)n2)cc1-c1ccccc1.[Cl-].[Cl-].[Cl-].[Cr+3]` [Example 6, 2-[1-(2,4,6-trimethylphenylimino)ethyl]-6-[1-(4-eicosanoxy-3,5-diphenylphenylimino)ethyl]pyridine chromium[III] trichloride complex], the “solubility in toluene or benzene-D6” value is on record as “ca. 1 mg/ml”.
